The values below come from US10919896B2, “Preparation and uses of pyrimidinone derivatives” (Cancer Research Technology Limited, priority 2016, dated 2021).

For experiment [1], the target named is Cdc7/Dbf4 (Homo sapiens, UniProt O00311). The experiment is described as follows: Cdc7 Biochemical Assay Method 3: Cdc7/Dbf4 Enzyme TR-FRET Assay measuring pS40MCM2. To be noted: 1 μM ATP, read-out: Biochemical Method 3 (pIC50) (converted). An outline of the steps:
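2.5 nM Cdc7/Dbf4 incubated with 100 nM biotinylated MCM2-derived peptide and 1 μM ATP, 120 minutes at 25° C. Phospho-S40 detected by TR-FRET using anti-pS40 Mcm2 antibody, terbium anti-rabbit secondary and streptavidin-Alexa Fluor488.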
(In general: In TR-FRET formats the signal depends on donor and acceptor labels being close together.)

Experiment [2] relates to Cdc7 (pS40MCM2 levels in HCT116 cells). The experiment is described as follows: Cdc7 Cell Pharmacodynamics Assay Method 2A: pS40MCM2 levels in HCT116 cells, 6 hours. The conditions noted are these: Homo sapiens, HCT-116, read-out: Biomarker Method 2A (pEC50) (converted). The experiment is classed as cell-based. An outline of the steps:
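HCT116 cells seeded at 20,000/well, settled overnight, then treated with compound (1:400 dilution from compound plate) for 6 h (Method 2A) or 18 h (Method 2B) at 37° C. Lysates captured on total-MCM2 antibody plates; pS40 MCM2 detected with rabbit anti-pMCM2 Ser40, HRP secondary and chemiluminescent substrate.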

SMILES strings stand for the structures. Structures can show the parent of a compound that is named as a salt.

Chain of Cdc7/Dbf4 (O00311 whole entry): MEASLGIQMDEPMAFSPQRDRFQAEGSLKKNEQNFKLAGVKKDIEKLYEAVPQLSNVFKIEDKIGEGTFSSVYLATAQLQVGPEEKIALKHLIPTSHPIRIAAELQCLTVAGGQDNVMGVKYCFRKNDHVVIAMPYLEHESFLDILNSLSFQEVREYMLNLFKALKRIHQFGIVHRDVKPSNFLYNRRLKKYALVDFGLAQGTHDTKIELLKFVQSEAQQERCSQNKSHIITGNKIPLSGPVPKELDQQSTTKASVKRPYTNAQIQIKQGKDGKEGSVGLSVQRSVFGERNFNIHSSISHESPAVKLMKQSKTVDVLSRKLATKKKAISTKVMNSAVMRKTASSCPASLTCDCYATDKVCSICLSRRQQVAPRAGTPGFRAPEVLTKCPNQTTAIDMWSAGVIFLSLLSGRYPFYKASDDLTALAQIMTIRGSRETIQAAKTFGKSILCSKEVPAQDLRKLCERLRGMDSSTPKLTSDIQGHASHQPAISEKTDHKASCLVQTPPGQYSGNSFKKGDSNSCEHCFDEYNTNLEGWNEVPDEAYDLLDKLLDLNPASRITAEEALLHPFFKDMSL
Chain of Cdc7/Dbf4 (Q9UBU7 whole entry partner): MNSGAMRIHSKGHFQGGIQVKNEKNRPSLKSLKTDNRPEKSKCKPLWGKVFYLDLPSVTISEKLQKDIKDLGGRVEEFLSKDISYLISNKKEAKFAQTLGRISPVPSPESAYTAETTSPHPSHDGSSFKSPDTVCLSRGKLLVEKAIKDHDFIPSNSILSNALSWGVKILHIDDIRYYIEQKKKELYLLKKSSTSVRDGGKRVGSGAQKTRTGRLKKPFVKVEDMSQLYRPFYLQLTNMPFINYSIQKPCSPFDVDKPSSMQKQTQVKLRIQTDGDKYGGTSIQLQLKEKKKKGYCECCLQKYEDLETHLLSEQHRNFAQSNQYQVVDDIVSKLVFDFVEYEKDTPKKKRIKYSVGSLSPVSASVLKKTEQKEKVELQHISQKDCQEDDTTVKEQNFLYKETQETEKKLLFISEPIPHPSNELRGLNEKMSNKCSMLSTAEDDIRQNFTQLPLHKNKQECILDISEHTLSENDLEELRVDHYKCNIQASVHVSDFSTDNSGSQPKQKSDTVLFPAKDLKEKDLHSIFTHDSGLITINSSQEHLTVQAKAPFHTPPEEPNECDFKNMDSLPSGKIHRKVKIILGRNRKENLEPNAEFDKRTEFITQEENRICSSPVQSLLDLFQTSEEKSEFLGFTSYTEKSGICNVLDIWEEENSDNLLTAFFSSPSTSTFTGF

On to `O=c1[nH]c(-c2ccnc(F)c2)nc(N2CCNCC(F)(F)C2)c1Cl` [Compound 312, 5-chloro-4-(6,6-difluoro-1,4-diazepan-1-yl)-2-(2-fluoro-4-pyridyl)-1H-pyrimidin-6-one hydrochloride], for which the IC50 in experiment [1] is 0.589 nM. In addition, the EC50 in experiment [2] was 11.5 nM. Turning to `O=c1[nH]c(-c2ccnc(F)c2)nc(N2CCNCC2)c1Cl` [Compound 360], the IC50 in experiment [1] is 0.871 nM. Besides, the EC50 in experiment [2] is 83.2 nM. As for `C[C@@H]1CNCCN1c1nc(-c2ccnc(F)c2)[nH]c(=O)c1Cl` [Compound 323], the IC50 in experiment [1] is 0.537 nM. Further, in experiment [2], the EC50 was 12 nM. Regarding `O=c1[nH]c(-c2ccncc2)nc(N2CCN(CC(F)F)CC2)c1Cl` [Compound 147], in experiment [1], the IC50 is 1.55 nM. In experiment [2], the EC50 is 427 nM. Regarding `CC(C)[C@H]1CN(c2nc(-c3ccnc(F)c3)[nH]c(=O)c2Cl)CCN1` [Compound 170], the IC50 in experiment [1] is 1.05 nM. For the same compound, the EC50 in experiment [2] is 21.9 nM. The matching figures for `C[C@@H]1CNCCN1c1nc(-c2ccncc2)[nH]c(=O)c1Cl` [Compound 364]: 1.41 nM and 26.9 nM.

As for `N[C@@H]1CCCN(c2nc(-c3ccnc(F)c3)[nH]c(=O)c2Cl)C1` [Compound 319], the IC50 in experiment [1] is 0.933 nM. In addition, the EC50 in experiment [2] is 126 nM. In the case of `O=c1[nH]c(-c2ccnc(F)c2)nc(N2CCCC(F)(F)C2)c1Cl` [Compound 90, 5-chloro-4-(3,3-difluoro-1-piperidyl)-2-(2-fluoro-4-pyridyl)-1H-pyrimidin-6-one], the IC50 in experiment [1] is 0.355 nM. For the compound `O=c1[nH]c(-c2ccncc2)nc(N2CCN[C@H](C(F)(F)F)C2)c1Cl` [Compound 139], the IC50 in experiment [1] is 4.07 nM. In addition, the EC50 in experiment [2] was 851 nM. The matching figures for `CC(C)(C)[C@H]1CN(c2nc(-c3ccncc3)[nH]c(=O)c2F)CCN1` [Compound 185]: 0.724 nM and 85.1 nM. Consider `C[C@H]1CN(c2nc(-c3ccncc3)[nH]c(=O)c2Cl)CCN1` [Compound 130], for which the IC50 in experiment [1] was 2.34 nM. Besides, the EC50 in experiment [2] was 776 nM. The matching figures for `N[C@H]1CCCN(c2nc(-c3ccnc(F)c3)[nH]c(=O)c2Cl)C1` [Compound 317]: 0.676 nM and 219 nM. In the case of `O=c1[nH]c(-c2ccncc2)nc(N2CCN[C@@H](C(F)(F)F)C2)c1Cl` [Compound 180], in experiment [1], the IC50 is 1.38 nM. The EC50 in experiment [2] is 37.2 nM. As to `O=c1[nH]c(-c2ccnc(F)c2)nc(N2CCOCC2)c1Cl` [Compound 316], in experiment [1], the IC50 is 0.525 nM. Moreover, in experiment [2], the EC50 is 44.7 nM.
